Source: patent US9718790B2, “Triazine derivative and pharmaceutical composition having an analgesic activity comprising the same” (SHIONOGI & CO., LTD., priority 2010, dated 2017)
pIC50: −log10 of the molar value.

Target: human P2X3 receptor (Homo sapiens (Human), UniProt P56373)
Assay: Evaluation of human P2X3 receptor inhibitory activity (Fluo-3 calcium fluorescence, FDSS 3000, ATP stimulation);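 further: stimulus was 50 nM ATP with fluorescence followed for 3 min, and the response per well was peak post-ATP fluorescence divided by the reading at measurement start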
Type: cell-based
Details: human P2X3 receptor, Test Example 1

human P2X3 receptor, sequence (P56373 whole entry): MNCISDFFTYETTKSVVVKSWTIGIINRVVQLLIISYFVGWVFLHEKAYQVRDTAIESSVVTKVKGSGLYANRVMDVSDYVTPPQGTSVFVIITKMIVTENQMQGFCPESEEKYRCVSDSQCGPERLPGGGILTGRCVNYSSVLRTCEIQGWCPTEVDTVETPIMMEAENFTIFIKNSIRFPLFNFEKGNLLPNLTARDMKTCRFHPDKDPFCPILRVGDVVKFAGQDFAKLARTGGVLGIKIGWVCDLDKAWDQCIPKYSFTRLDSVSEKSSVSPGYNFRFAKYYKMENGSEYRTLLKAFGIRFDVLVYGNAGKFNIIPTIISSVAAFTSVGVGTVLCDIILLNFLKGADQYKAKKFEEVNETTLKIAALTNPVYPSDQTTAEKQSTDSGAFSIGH

| SMILES | pIC50 |
| --- | --- |
| O=C(O)c1cc(Oc2ccc(/N=c3\[nH]c(=O)n(C4CC4)c(=O)n3Cc3ccc(Cl)cc3)cc2)ccn1 [Compound I-2330] | 8.15 |
| O=C(O)c1cncc(Oc2ccc(/N=c3\[nH]c(=O)n(C4CC4)c(=O)n3Cc3ccc(Cl)cc3)cc2)c1 [Compound I-2331] | 8.15 |
| COC(=O)c1cncc(Oc2ccc(/N=c3\[nH]c(=O)n(C4COC4)c(=O)n3Cc3ccc(Cl)cc3)cc2)c1 [Compound I-2332] | 6.66 |
| CC1(C)OC[C@H](Cn2c(=O)[nH]/c(=N\c3ccc(Oc4cncc(F)c4)cc3)n(Cc3ccc(Cl)cc3)c2=O)O1 [Compound I-2333] | 8.52 |
| O=c1[nH]/c(=N\c2ccc(Oc3cncc(F)c3)cc2)n(Cc2ccc(Cl)cc2)c(=O)n1C[C@H](O)CO [Compound I-2334] | 8.30 |
| CCc1cc2cc(/N=c3\[nH]c(=O)n(CCCOC4CCCCO4)c(=O)n3Cc3ccc(Cl)cc3)ccc2o1 (stereo not shown) [Compound I-2335] | 8.22 |
| CCc1cc2cc(/N=c3\[nH]c(=O)n(CCCO)c(=O)n3Cc3ccc(Cl)cc3)ccc2o1 [Compound I-2336] | 8.00 |
| CCn1c(=O)[nH]/c(=N\c2ccc3nc(/C=N\OC)sc3c2)n(Cc2ccc(Cl)cc2)c1=O [Compound I-2338] | 6.59 |
| Cc1ccc(Cn2c(=O)n(C)c(=O)[nH]/c2=N\c2ccc(Oc3cc(C#N)ccn3)cc2)cc1 [Compound I-2340] | 7.89 |
| Cn1c(=O)[nH]/c(=N\c2ccc(Oc3cc(C#N)ccn3)cc2)n(Cc2ccc(Cl)cc2)c1=O [Compound I-2341] | 8.00 |
| Cc1ccc(Cn2c(=O)n(C)c(=O)[nH]/c2=N\c2ccc(Oc3cc(C(N)=O)ccn3)cc2)cc1 [Compound I-2342] | 7.80 |
| Cc1ccc(Cn2c(=O)n(C)c(=O)[nH]/c2=N\c2ccc(Oc3cc(C(=O)O)ccn3)cc2)cc1 [Compound I-2343] | 7.72 |
| CCn1c(=O)[nH]/c(=N\c2ccc(Oc3cccc(/C=C/C(=O)O)c3)cc2)n(Cc2ccc(C)cc2)c1=O [Compound I-2344] | 8.52 |
| CCn1c(=O)[nH]/c(=N\c2ccc(Oc3ncccc3C#N)cc2)n(Cc2ccc(Cl)cc2)c1=O [Compound I-2345] | 7.70 |
| CCn1c(=O)[nH]/c(=N\c2ccc(Oc3nc(C)c(C(=O)O)s3)cc2)n(C[C@H]2CC[C@H](C)CC2)c1=O [Compound I-2346] | 8.40 |
| CCn1c(=O)[nH]/c(=N\c2ccc(Oc3ncc(C(=O)O)s3)cc2)n(C[C@H]2CC[C@H](C)CC2)c1=O [Compound I-2347] | 8.30 |
| CCn1c(=O)[nH]/c(=N\c2ccc(Oc3nc(C(=O)O)cs3)cc2)n(C[C@H]2CC[C@H](C)CC2)c1=O [Compound I-2348] | 8.40 |
| CCn1c(=O)[nH]/c(=N\c2ccc(Oc3cc(C(=O)O)sn3)cc2)n(C[C@H]2CC[C@H](C)CC2)c1=O [Compound I-2349] | 8.40 |
| CCn1c(=O)[nH]/c(=N\c2ccc(Oc3ccsn3)cc2)n(C[C@H]2CC[C@H](C)CC2)c1=O [Compound I-2350] | 8.70 |
| CCn1c(=O)[nH]/c(=N\c2ccc(Oc3ccc(C(=O)O)nc3)cc2)n(C[C@H]2CC[C@H](C)CC2)c1=O [Compound I-2351] | 8.05 |
| CCn1c(=O)[nH]/c(=N\c2ccc(Oc3cncc(C(=O)O)c3)cc2)n(C[C@H]2CC[C@H](C)CC2)c1=O [Compound I-2352] | 8.22 |
| Cc1cc(Oc2ccc(/N=c3\[nH]c(=O)n(CC(CO)CO)c(=O)n3Cc3ccc(Cl)cc3)cc2)no1 [Compound I-2353] | 8.10 |
| CCn1c(=O)[nH]/c(=N\c2ccc(Oc3cccc(C(=O)O)c3)cc2)n(C[C@H]2CC[C@H](C)CC2)c1=O [Compound I-2354] | 8.52 |

| SMILES | pIC50 |
| --- | --- |
| Cc1nnc(Oc2ccc(/N=c3\[nH]c(=O)n(C)c(=O)n3Cc3ccc(Cl)cc3)cc2)o1 [Compound I-2355] | 7.15 |
| Cn1c(=O)[nH]/c(=N\c2ccc(Oc3ccon3)cc2)n(Cc2ccc(Cl)cc2)c1=O [Compound I-2356] | 7.62 |
| CCn1c(=O)[nH]/c(=N\c2ccc(Oc3ccon3)cc2)n(Cc2ccc(Cl)cc2)c1=O [Compound I-2357] | 7.92 |
| O=c1[nH]/c(=N\c2ccc(Oc3ccon3)cc2)n(Cc2ccc(Cl)cc2)c(=O)n1CCCO [Compound I-2358] | 8.22 |
| CCn1c(=O)[nH]/c(=N\c2ccc(Oc3ccnc(C(=O)OC)c3)cc2)n(Cc2ccc(F)cc2)c1=O [Compound I-2359] | 7.59 |
| CCn1c(=O)[nH]/c(=N\c2ccc(Oc3ccnc(C(=O)O)c3)cc2)n(Cc2ccc(F)cc2)c1=O [Compound I-2360] | 7.96 |
| CCn1c(=O)[nH]/c(=N\c2ccc(Oc3ccnc(C(N)=O)c3)cc2)n(Cc2ccc(F)cc2)c1=O [Compound I-2361] | 7.82 |
| CCn1c(=O)[nH]/c(=N\c2ccc(Oc3ncccn3)cc2)n(Cc2ccc(Cl)cc2)c1=O [Compound I-2362] | 8.00 |
| Cc1ccc(Cn2c(=O)n(C)c(=O)[nH]/c2=N\c2ccc(Oc3cccc(/C=C/C(=O)O)c3)cc2)cc1 [Compound I-2363] | 8.05 |
| Cn1c(=O)[nH]/c(=N\c2ccc(Oc3cccc(/C=C/C(=O)O)c3)cc2)n(Cc2ccc(Cl)cc2)c1=O [Compound I-2364] | 8.10 |
| CCn1c(=O)[nH]/c(=N\c2ccc(Oc3ncccc3C(N)=O)cc2)n(Cc2ccc(Cl)cc2)c1=O [Compound I-2365] | 6.68 |
| CCn1c(=O)[nH]/c(=N\c2ccc(Oc3ncccc3C(=O)O)cc2)n(Cc2ccc(Cl)cc2)c1=O [Compound I-2366] | 7.05 |
| CCn1c(=O)[nH]/c(=N\c2ccc(Oc3cc(C)nn3C)cc2)n(Cc2ccc(Cl)cc2)c1=O [Compound I-2367] | 6.89 |
| Cc1cc(Oc2ccc(/N=c3\[nH]c(=O)n(C[C@H]4COC(C)(C)O4)c(=O)n3Cc3ccc(Cl)cc3)cc2)n(C)n1 [Compound I-2368] | 7.89 |
| O=c1[nH]/c(=N\c2ccc(Oc3ccon3)cc2)n(Cc2ccc(Cl)cc2)c(=O)n1CC(O)CO (stereo not shown) [Compound I-2370] | 7.96 |
| Cc1cc(Oc2ccc(/N=c3\[nH]c(=O)n(C[C@H](O)CO)c(=O)n3Cc3ccc(Cl)cc3)cc2)n(C)n1 [Compound I-2371] | 6.99 |
| CCn1c(=O)[nH]/c(=N\c2ccc(Oc3ccnc(C#N)c3)cc2)n(Cc2ccc(Cl)cn2)c1=O [Compound I-2372] | 7.49 |
| CCn1c(=O)[nH]/c(=N\c2ccc(Oc3cccc(C#N)n3)cc2)n(Cc2ccc(Cl)cn2)c1=O [Compound I-2373] | 7.48 |
| Cn1c(=O)[nH]/c(=N\c2ccc(Oc3cccc(C#N)n3)cc2)n(Cc2ccc(Cl)cc2)c1=O [Compound I-2374] | 8.10 |
| CCn1c(=O)[nH]/c(=N\c2ccc(Oc3ccc(C#N)nc3)cc2)n(Cc2ccc(Cl)cn2)c1=O [Compound I-2375] | 7.66 |
| Cn1c(=O)[nH]/c(=N\c2ccc(Oc3cc(C(N)=O)ccn3)cc2)n(Cc2ccc(Cl)cc2)c1=O [Compound I-2376] | 7.70 |
| COC(=O)c1cc(Oc2ccc(/N=c3\[nH]c(=O)n(C)c(=O)n3Cc3ccc(Cl)cc3)cc2)ccn1 [Compound I-2377] | 7.82 |
| Cn1c(=O)[nH]/c(=N\c2ccc(Oc3ccnc(C(N)=O)c3)cc2)n(Cc2ccc(Cl)cc2)c1=O [Compound I-2378] | 8.22 |

| SMILES | pIC50 |
| --- | --- |
| Cn1c(=O)[nH]/c(=N\c2ccc(Oc3ccc(C(N)=O)nn3)cc2)n(Cc2ccc(Cl)cc2)c1=O [Compound I-2379] | 8.05 |
| Cn1c(=O)[nH]/c(=N\c2ccc(Oc3nccc(C(N)=O)n3)cc2)n(Cc2ccc(Cl)cc2)c1=O [Compound I-2380] | 7.54 |
| Cn1c(=O)[nH]/c(=N\c2ccc(Oc3ccc(C(=O)O)nn3)cc2)n(Cc2ccc(Cl)cc2)c1=O [Compound I-2381] | 7.27 |
| Cc1ccc(Cn2c(=O)n(C)c(=O)[nH]/c2=N\c2ccc(Oc3ccc(C(=O)O)nn3)cc2)cc1 [Compound I-2382] | 7.27 |
| CCn1c(=O)[nH]/c(=N\c2ccc(Oc3ccc(C(=O)O)nn3)cc2)n(Cc2ccc(C)cc2)c1=O [Compound I-2383] | 7.82 |
| Cc1ccc(Cn2c(=O)n(C)c(=O)[nH]/c2=N\c2ccc(Oc3cnc(C(=O)O)cn3)cc2)cc1 [Compound I-2385] | 7.89 |
| Cn1c(=O)[nH]/c(=N\c2ccc(Oc3cnc(C(=O)O)cn3)cc2)n(Cc2ccc(Cl)cc2)c1=O [Compound I-2386] | 7.89 |
| CCn1c(=O)[nH]/c(=N\c2ccc(Oc3cccc(C#N)n3)c(OC)c2)n(Cc2ccc(Cl)cc2)c1=O [Compound I-2387] | 8.70 |
| CCn1c(=O)[nH]/c(=N\c2ccc(Oc3cnc(C(N)=O)cn3)cc2)n(Cc2ccc(Cl)cc2)c1=O [Compound I-2388] | 8.52 |
| Cn1c(=O)[nH]/c(=N\c2ccc(Oc3cnc(C(N)=O)cn3)cc2)n(Cc2ccc(Cl)cc2)c1=O [Compound I-2389] | 8.00 |
| COc1cc(/N=c2\[nH]c(=O)n(C)c(=O)n2Cc2ccc(Cl)cc2)ccc1Oc1cccc(C#N)n1 [Compound I-2390] | 8.15 |
| Cn1c(=O)[nH]/c(=N\c2ccc(Oc3cc(C(=O)O)ccn3)cc2)n(Cc2ccc(Cl)cc2)c1=O [Compound I-2391] | 7.54 |
| Cn1c(=O)[nH]/c(=N\c2ccc(Oc3ccc(C#N)cn3)cc2)n(Cc2ccc(Cl)cc2)c1=O [Compound I-2392] | 7.96 |
| Cc1ccc(Cn2c(=O)n(C)c(=O)[nH]/c2=N\c2ccc(Oc3ccc(C#N)cn3)cc2)cc1 [Compound I-2393] | 8.00 |
| O=c1[nH]/c(=N\c2ccc(Oc3ccon3)cc2)n(Cc2ccc(F)cc2)c(=O)n1CCCOC1CCCCO1 (stereo not shown) [Compound I-2394] | 7.68 |
| CCn1c(=O)[nH]/c(=N\c2ccc(Oc3ccc(C#N)cn3)cc2)n(Cc2ccc(C)cc2)c1=O [Compound I-2395] | 8.40 |
| CC1(Cn2c(=O)[nH]/c(=N\c3ccc(Oc4ccon4)cc3)n(Cc3ccc(F)cc3)c2=O)COC(C)(C)OC1 [Compound I-2396] | 8.22 |
| O=c1[nH]/c(=N\c2ccc(Oc3ccon3)cc2)n(Cc2ccc(F)cc2)c(=O)n1CCCO [Compound I-2397] | 7.41 |
| CCn1c(=O)[nH]/c(=N\c2ccc(Oc3ccc(C(N)=O)cn3)cc2)n(Cc2ccc(C)cc2)c1=O [Compound I-2398] | 8.52 |
| CC(CO)(CO)Cn1c(=O)[nH]/c(=N\c2ccc(Oc3ccon3)cc2)n(Cc2ccc(F)cc2)c1=O [Compound I-2399] | 7.70 |
| CCn1c(=O)[nH]/c(=N\c2ccc(Oc3ccc(C(=O)O)cn3)cc2)n(Cc2ccc(C)cc2)c1=O [Compound I-2400] | 8.22 |
